Key:
[1] = target: Platelet-activating factor receptor (Homo sapiens, UniProt P25105); format: tissue-based; further: in other assays of this panel Not Active means under 50% inhibition at 10 µM
[2] = target: Mitogen-activated protein kinase 1 (Homo sapiens, UniProt P28482); experiment: DRUGMATRIX: Protein Serine/Threonine Kinase, ERK2 enzyme inhibition (substrate: Myelin Basic Protein); parameters: species or system Escherichia coli; conditions: Not Active = under 50% inhibition at 10 µM
[3] = target: T1, Alpha-2C adrenergic receptor (Homo sapiens, UniProt P18825); experiment: DRUGMATRIX: Adrenergic Alpha-2C radioligand binding (ligand: [3H] MK-912); format: cell membranes, Sf9, Membrane
T1 sequence (P18825 whole entry): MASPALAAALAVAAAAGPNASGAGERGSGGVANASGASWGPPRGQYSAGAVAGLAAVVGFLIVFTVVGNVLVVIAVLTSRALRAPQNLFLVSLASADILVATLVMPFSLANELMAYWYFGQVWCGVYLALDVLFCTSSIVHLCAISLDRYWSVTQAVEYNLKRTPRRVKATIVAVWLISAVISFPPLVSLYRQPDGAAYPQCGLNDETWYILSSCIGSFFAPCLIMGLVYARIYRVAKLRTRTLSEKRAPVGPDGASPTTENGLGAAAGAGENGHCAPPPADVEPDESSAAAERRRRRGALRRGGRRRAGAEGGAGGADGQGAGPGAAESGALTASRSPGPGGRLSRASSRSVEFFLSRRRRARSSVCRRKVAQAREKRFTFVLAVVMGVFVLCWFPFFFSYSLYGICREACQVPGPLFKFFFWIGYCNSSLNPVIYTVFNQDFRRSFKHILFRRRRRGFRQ

[4] = DRUGMATRIX: ATPase, Na+/K+ enzyme inhibition (substrate: ATP); format: tissue-based, Sus scrofa, Heart; conditions: Not Active = under 50% inhibition at 10 µM
[5] = DRUGMATRIX: Sigma2 radioligand binding (ligand: [3H] Ifenprodil); format: cell membranes, Rattus norvegicus, Wistar, Brain, Membrane; conditions: Not Active = under 50% inhibition at 10 µM
[6] = DRUGMATRIX: GABAA, Muscimol, Central radioligand binding (ligand: [3H] Muscimol); format: cell membranes, Rattus norvegicus, Wistar, Brain, Membrane; conditions: Not Active = under 50% inhibition at 10 µM

Chain of Platelet-activating factor receptor (P25105 whole entry): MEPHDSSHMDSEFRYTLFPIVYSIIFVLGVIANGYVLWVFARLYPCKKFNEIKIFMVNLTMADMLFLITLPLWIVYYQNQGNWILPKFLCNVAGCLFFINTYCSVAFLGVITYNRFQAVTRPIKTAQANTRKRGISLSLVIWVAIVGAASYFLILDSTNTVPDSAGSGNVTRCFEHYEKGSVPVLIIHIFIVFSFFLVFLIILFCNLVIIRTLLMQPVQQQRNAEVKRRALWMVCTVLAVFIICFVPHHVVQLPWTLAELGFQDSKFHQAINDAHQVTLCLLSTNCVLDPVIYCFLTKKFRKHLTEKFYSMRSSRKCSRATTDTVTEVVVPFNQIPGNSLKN
Chain of Mitogen-activated protein kinase 1 (P28482 whole entry): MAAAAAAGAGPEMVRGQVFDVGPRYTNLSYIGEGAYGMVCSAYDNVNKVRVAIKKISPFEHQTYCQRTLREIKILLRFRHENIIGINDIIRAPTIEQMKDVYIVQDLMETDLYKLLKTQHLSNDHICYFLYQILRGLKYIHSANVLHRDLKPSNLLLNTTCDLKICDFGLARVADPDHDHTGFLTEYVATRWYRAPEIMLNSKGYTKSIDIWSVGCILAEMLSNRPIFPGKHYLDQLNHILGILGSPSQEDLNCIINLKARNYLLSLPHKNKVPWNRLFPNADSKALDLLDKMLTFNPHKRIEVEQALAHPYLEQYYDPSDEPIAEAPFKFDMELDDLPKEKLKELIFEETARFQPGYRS

SMILES	IC50 [1]	IC50 [2]	IC50 ([3]; sf9)	IC50 [4]	Ki [4]	IC50 [5]	Ki [5]	IC50 [6]	Ki [6]	IC50 ([2]; read-out: IC50) [µM]	IC50 ([5]; read-out: IC50) [µM]	Ki ([5]; read-out: Ki) [µM]	IC50 ([3]; read-out: IC50) [µM]	Ki ([3]; read-out: Ki) [µM]
Cc1cc2c(s1)Nc1ccccc1N=C2N1CCN(C)CC1 [OLANZAPINE]	Not Active	Not Active	–	–	–	–	–	–	–	–	–	–	–	–
CC1(C)[C@H](C(=O)O)N2C(=O)C[C@H]2S1(=O)=O [SULBACTAM]	Not Active	Not Active	Not Active	Not Active	Not Active	Not Active	Not Active	Not Active	Not Active	–	–	–	–	–
Oc1ccc(/C=C/c2cc(O)cc(O)c2)cc1 [RESVERATROL]	Not Active	Not Active	Not Active	Not Active	Not Active	Not Active	Not Active	Not Active	Not Active	–	–	–	–	–
O=C1CC[C@@]2(O)[C@H]3Cc4ccc(O)c5c4[C@@]2(CCN3CC2CC2)[C@H]1O5 [NALTREXONE]	Not Active	Not Active	Not Active	Not Active	Not Active	Not Active	Not Active	Not Active	Not Active	–	–	–	–	–
Cc1nnc(NS(=O)(=O)c2ccc(N)cc2)s1 [SULFAMETHIZOLE]	Not Active	Not Active	Not Active	Not Active	Not Active	Not Active	Not Active	Not Active	Not Active	–	–	–	–	–
C=CCc1ccc2c(c1)OCO2 [SAFROLE]	Not Active	Not Active	Not Active	Not Active	Not Active	Not Active	Not Active	Not Active	Not Active	–	–	–	–	–
Cc1cn([C@H]2C=C[C@@H](CO)O2)c(=O)[nH]c1=O [STAVUDINE]	Not Active	Not Active	Not Active	Not Active	Not Active	Not Active	Not Active	Not Active	Not Active	–	–	–	–	–
CC1=C(/C=C/C(C)=C/C=C/C(C)=C/C(=O)O)C(C)(C)CCC1 [TRETINOIN]	Not Active	–	Not Active	Not Active	Not Active	Not Active	Not Active	Not Active	Not Active	0.576	–	–	–	–
Nc1nc(N)c2nc(-c3ccccc3)c(N)nc2n1	Not Active	Not Active	Not Active	Not Active	Not Active	Not Active	Not Active	Not Active	Not Active	–	–	–	–	–
CN1C(=O)OC(C)(C)C1=O [TRIMETHADIONE]	Not Active	Not Active	Not Active	Not Active	Not Active	Not Active	Not Active	Not Active	Not Active	–	–	–	–	–
Cc1ccc(S(=O)(=O)NC(=O)NN2CCCCCC2)cc1 [TOLAZAMIDE]	Not Active	Not Active	Not Active	Not Active	Not Active	Not Active	Not Active	Not Active	Not Active	–	–	–	–	–
O=C(O)c1cc(/N=N/c2ccc(S(=O)(=O)Nc3ccccn3)cc2)ccc1O [SULFASALAZINE]	Not Active	–	Not Active	Not Active	Not Active	Not Active	Not Active	Not Active	Not Active	6.33	–	–	–	–
CCN(CC)C(=S)SSC(=S)N(CC)CC	Not Active	Not Active	Not Active	Not Active	Not Active	–	–	Not Active	Not Active	–	75.6	46.5	–	–
CS(=O)(=O)c1ccc(C2=C(c3ccccc3)C(=O)OC2)cc1 [ROFECOXIB]	Not Active	Not Active	Not Active	Not Active	Not Active	Not Active	Not Active	Not Active	Not Active	–	–	–	–	–
Cc1cnc(NC(=O)C2=C(O)c3ccccc3S(=O)(=O)N2C)s1 [MELOXICAM]	Not Active	Not Active	Not Active	Not Active	Not Active	Not Active	Not Active	Not Active	Not Active	–	–	–	–	–
C1CCN2C[C@@H]3C[C@@H](CN4CCCC[C@@H]34)[C@H]2C1 [SPARTEINE]	Not Active	Not Active	Not Active	Not Active	Not Active	Not Active	Not Active	Not Active	Not Active	–	–	–	–	–
CO[C@@H]1[C@@H](OC)[C@H](C)[C@@](O)(CC(=O)O)O[C@H]1[C@H](C)[C@H]1O[C@@]2(CC[C@@](C)([C@H]3CC[C@@](C)([C@@H]4O[C@@H]([C@H]5O[C@](C)(O)[C@H](C)C[C@@H]5C)C[C@@H]4O[C@@H]4C[C@H](OC)[C@@H](OC)[C@H](C)O4)O3)O2)C[C@H](O)[C@H]1C.N [MADURAMICIN]	Not Active	Not Active	Not Active	Not Active	Not Active	Not Active	Not Active	Not Active	Not Active	–	–	–	–	–
CC[C@@]1(O)C(=O)OCc2c1cc1n(c2=O)Cc2cc3c(CN(C)C)c(O)ccc3nc2-1 [TOPOTECAN]	Not Active	Not Active	Not Active	Not Active	Not Active	Not Active	Not Active	Not Active	Not Active	–	–	–	–	–
C#C[C@]1(O)CC[C@H]2[C@@H]3[C@H](C)CC4=C(CCC(=O)C4)[C@H]3CC[C@@]21C [TIBOLONE]	Not Active	Not Active	Not Active	Not Active	Not Active	Not Active	Not Active	Not Active	Not Active	–	–	–	–	–
C[N+]1(C)[C@@H]2C[C@@H](OC(=O)[C@H](CO)c3ccccc3)C[C@H]1[C@@H]1O[C@@H]12.[Br-] [METHSCOPOLAMINE BROMIDE]	Not Active	Not Active	Not Active	Not Active	Not Active	Not Active	Not Active	Not Active	Not Active	–	–	–	–	–
CC[C@H](C)[C@@H](CO[C@@H](Cc1ccccc1)C(=O)N[C@@H](CCS(C)(=O)=O)C(=O)OC(C)C)NC[C@@H](N)CS	Not Active	Not Active	–	Not Active	Not Active	Not Active	Not Active	Not Active	Not Active	–	–	–	3.14	0.456
CCN1CCCC1CNC(=O)c1cc(S(N)(=O)=O)ccc1OC (stereo not given) [SULPIRIDE]	Not Active	Not Active	Not Active	Not Active	Not Active	Not Active	Not Active	Not Active	Not Active	–	–	–	–	–
CC[C@H](C)C(=O)O[C@H]1CCC=C2C=C[C@H](C)[C@H](CC[C@@H]3C[C@@H](O)CC(=O)O3)[C@H]21 [MEVASTATIN]	Not Active	Not Active	Not Active	Not Active	Not Active	Not Active	Not Active	Not Active	Not Active	–	–	–	–	–
C[C@]12CCC(=O)C[C@@H]1CC[C@@H]1[C@@H]2CC[C@]2(C)[C@@H](O)CC[C@@H]12 [STANOLONE]	Not Active	Not Active	Not Active	Not Active	Not Active	Not Active	Not Active	Not Active	Not Active	–	–	–	–	–
CC(N)C12CC3CC(CC(C3)C1)C2 (stereo not given) [RIMANTADINE]	Not Active	Not Active	Not Active	Not Active	Not Active	Not Active	Not Active	Not Active	Not Active	–	–	–	–	–
Cc1cccc(C)c1NC(=O)C(C)N (stereo not given) [TOCAINIDE]	Not Active	Not Active	Not Active	Not Active	Not Active	Not Active	Not Active	Not Active	Not Active	–	–	–	–	–
CCN(CC)N=O [N-NITROSODIETHYLAMINE]	Not Active	Not Active	Not Active	Not Active	Not Active	Not Active	Not Active	Not Active	Not Active	–	–	–	–	–
CNCCCC12CCC(c3ccccc31)c1ccccc12 [MAPROTILINE]	Not Active	Not Active	–	–	–	–	–	–	–	–	–	–	–	–
CN(C)CCC=C1c2ccccc2COc2ccccc21 [DOXEPIN]	Not Active	Not Active	–	–	–	–	–	–	–	–	–	–	–	–
CCC(C)(C)C(=O)O[C@H]1C[C@@H](C)C=C2C=C[C@H](C)[C@H](CC[C@@H]3C[C@@H](O)CC(=O)O3)[C@H]21 [SIMVASTATIN]	Not Active	Not Active	Not Active	Not Active	Not Active	Not Active	Not Active	Not Active	Not Active	–	–	–	–	–

Reference: ChEMBL document CHEMBL1909046, “DrugMatrix in vitro pharmacology data”
